Measured values as given in paper PMC11637875, “Discovery of novel PARP1/NRP1 dual-targeting inhibitors with strong antitumor potency” (Frontiers in Pharmacology, 2024).
Where two headings read alike, the source gives them in different places.

Assays:
[1] = tested on: MDA-MB-231 xenograft tumor; test: In vivo antitumor assay; set-up: species or system BALB/c nude mice; details: 5 mg/kg intraperitoneally every 3 days, n = 6
Method: Twenty-four female BALB/c nude mice (body weight 16–20 g) at 4–6 weeks old were purchased from Changzhou Cavens Experimental Animal Limited Company (Changzhou, China). Mice were adaptively housed for 1 week in a specific pathogen-free (SPF) environment with a temperature of 25°C ± 2°C, a 12-hour light/dark cycle, and free access to food and water. MDA-MB-231 breast cancer cells (200 μL, 1×10^7 cells) were suspended in PBS to formulate cell suspension, and 0.1 mL of cells were injected into the axilla of the left forelimb of mice by subcutaneous injection. […] Equal concentrations of drug-free PBS buffer were used for the vehicle group. Each group was administered every 3 days and the body weight and tumor size of the mice were recorded. Mice were executed when the tumor volume approached 2000 mm^3. Tumor volumes of all mice were measured using vernier calipers. The mice were placed belly up and the longest diameter of the tumor was measured with the inner bayonet of a vernier caliper, and the shortest transverse diameter perpendicular to the diameter was measured with the inner bayonet of a vernier caliper and recorded. Tumor volume was estimated according to the following formula: (c × c × d)/2 (c, the smallest diameter; d, the largest diameter). All animal experiments were performed and approved by the Ethics Committee of China Pharmaceutical University.

MDA-MB-231 cells = test: In vitro antiproliferation assay (MTT); type: cell-based; details: Homo sapiens
Method: Cell viability was measured by MTT assays. […] Afterward, the medium was removed. MTT (5 mg/mL) was dissolved in phosphate-buffered saline (PBS) and filter-sterilized, and then, 20 μL of the prepared MTT solution was added to each well, and the cells were incubated for another 4 h until a purple precipitate was visible. The supernatant was removed by centrifugation, and DMSO (150 μL/well) was added to dissolve the insoluble crystals. The absorbance was determined using an enzyme-linked immunosorbent assay reader at a test wavelength of 570 nm. The assays were performed three times in a parallel manner. The non-linear regression was used to plot a Dose-Response-Inhibition to determine the value of the IC50. […] The data were analyzed using GraphPad Prism 9 software.

NRP1 [2] = molecular target: T1, NRP1 (Homo sapiens, UniProt O14786); test: Microscale thermophoresis (MST) assay; type: binding; details: labeled protein 50 nM; for Kd: read-out: NRP1 (K d)
T1 construct: purchased Abcam
T1 sequence (O14786 22-644 isoform O14786-2 limits assumed): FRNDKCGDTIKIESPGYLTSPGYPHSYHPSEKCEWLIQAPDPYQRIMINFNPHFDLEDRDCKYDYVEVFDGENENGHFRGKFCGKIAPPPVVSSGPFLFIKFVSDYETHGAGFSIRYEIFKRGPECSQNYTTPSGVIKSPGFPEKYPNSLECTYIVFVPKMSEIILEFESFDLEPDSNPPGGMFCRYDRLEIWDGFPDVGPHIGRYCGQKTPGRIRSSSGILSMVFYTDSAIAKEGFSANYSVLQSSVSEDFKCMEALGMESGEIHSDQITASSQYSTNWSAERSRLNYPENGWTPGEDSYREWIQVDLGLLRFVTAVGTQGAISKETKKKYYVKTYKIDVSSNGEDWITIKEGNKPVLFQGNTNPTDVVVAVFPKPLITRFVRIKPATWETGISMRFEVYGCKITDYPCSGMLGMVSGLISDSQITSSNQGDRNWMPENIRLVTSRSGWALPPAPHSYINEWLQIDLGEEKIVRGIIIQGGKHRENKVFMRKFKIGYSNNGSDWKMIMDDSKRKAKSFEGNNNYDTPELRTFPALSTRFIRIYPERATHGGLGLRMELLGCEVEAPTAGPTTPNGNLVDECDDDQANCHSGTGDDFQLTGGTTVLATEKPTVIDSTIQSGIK
Method: (§1) All samples were diluted in 1 × PBST. […] Affinity Analysis software.

PARP1 [3] = molecular target: T2, PARP1 (Homo sapiens, UniProt P09874); test: Microscale thermophoresis (MST) assay; type: binding; details: labeled protein 50 nM; for Kd: read-out: PARP1 (K d)
T2 construct: purchased Abcam
T2 sequence (P09874 whole entry): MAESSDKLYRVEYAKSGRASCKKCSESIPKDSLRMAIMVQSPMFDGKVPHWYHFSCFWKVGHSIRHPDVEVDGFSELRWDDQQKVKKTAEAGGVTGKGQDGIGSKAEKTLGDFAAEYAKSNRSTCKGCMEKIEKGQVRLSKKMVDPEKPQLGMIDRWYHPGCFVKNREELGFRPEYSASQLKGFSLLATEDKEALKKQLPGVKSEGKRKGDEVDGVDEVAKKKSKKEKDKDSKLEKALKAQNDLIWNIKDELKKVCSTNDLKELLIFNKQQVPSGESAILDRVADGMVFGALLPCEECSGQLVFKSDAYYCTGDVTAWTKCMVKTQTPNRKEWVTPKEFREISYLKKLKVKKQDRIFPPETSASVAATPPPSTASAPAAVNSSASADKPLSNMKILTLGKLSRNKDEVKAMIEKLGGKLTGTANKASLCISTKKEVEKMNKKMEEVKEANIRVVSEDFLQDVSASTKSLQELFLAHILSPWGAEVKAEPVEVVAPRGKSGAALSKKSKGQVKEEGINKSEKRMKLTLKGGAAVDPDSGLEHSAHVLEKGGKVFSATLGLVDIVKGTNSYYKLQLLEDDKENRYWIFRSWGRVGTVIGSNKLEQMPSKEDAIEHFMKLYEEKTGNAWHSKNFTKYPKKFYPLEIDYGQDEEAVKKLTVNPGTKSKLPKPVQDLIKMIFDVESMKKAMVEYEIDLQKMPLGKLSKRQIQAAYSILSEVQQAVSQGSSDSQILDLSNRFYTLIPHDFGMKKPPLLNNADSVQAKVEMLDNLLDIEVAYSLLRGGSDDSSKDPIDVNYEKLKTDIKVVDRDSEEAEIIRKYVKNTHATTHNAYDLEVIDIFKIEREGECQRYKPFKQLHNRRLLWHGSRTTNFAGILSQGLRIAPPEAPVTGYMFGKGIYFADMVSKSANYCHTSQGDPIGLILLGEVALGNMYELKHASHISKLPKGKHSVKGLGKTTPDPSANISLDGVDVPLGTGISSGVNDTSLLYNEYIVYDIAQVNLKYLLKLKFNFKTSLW
Method: as §1

PARP1 [4] = molecular target: T2, PARP1; test: In vitro PARP1 inhibition assay (chemiluminescence); type: biochemical; details: PARP1 enzyme 0.6 units/well
Method: In each well, 50 μL of 1 × PARP1 buffer was added and incubated for 30 min at room temperature. The 1 × PARP1 buffer was removed from the wells, and then 25 μL of 1 × PARP1 cocktail was added to each well along with varying doses of compounds and PARP1 enzyme (0.6 units/well). Incubated and washed twice with PBS and 0.1% Triton X-100. Then added 50 μL Strep-HRP and washed twice. Equal volumes (100 μL) of PeroxyGlow A and B were added to each well and immediately take chemiluminescent readings. Data were analyzed by GraphPad Prism 9 software based on chemiluminescence readings of chemiluminescent substrates of Strep-HRP in each well. The IC50 value was were calculated by nonlinear curve fitting in GraphPad Prism 9.

NRP1 [5] = molecular target: T3, NRP1 (Homo sapiens, UniProt O14786); test: In vitro NRP1 inhibition assay (125I-VEGF-A binding displacement, NRP1-transfected HUVEC cells); details: 125I-VEGF-A165 binding competition, 2 h, 4°C
T3 construct: expressed in transfected cells; host or cells: HUVEC, adenovirus NRP1
Method: The method was performed as described previously ([Jarvis et al., 2010]). Radiolabeled binding displacement experiments were performed as described previously ([Jia et al., 2006]). Confluent adenovirus NRP1-transfected HUVEC cells in 96-well plates were washed twice with PBS. At 4°C various concentrations of compounds diluted in binding medium (Dulbecco’s modified Eagle’s medium, 25 mM HEPES, pH 7.3, containing 0.1% BSA) were added, followed by addition of the indicated concentration of ^125I-VEGF-A (1,200–1800 Ci/mmol, GE Healthcare, United Kingdom). After 2 h of incubation at 4°C, the medium was aspirated, and washed four times with cold phosphate-buffered saline. The cells were lysed with 0.25 M NaOH, 0.5% SDS solution, and the bound radioactivity of the lysates was measured. IC50 values were calculated from the competition curves of the compounds in the ^125I-VEGF-A165 binding assay using GraphPad Prism 9 software. Using log(inhibitors) vs response-Variable slope equation in the GraphPad Prism 9 to fit the curves. The equation was as follows: (Top and Bottom are the responses, respectively, at the top and bottom of the curve, Y is the inhibitory response at a given compound concentration X, and the Hillslope describes the steepness of the curve.) Y=Bottom+Top−Bottom/1+10^logIC50−xHillslope
T3 sequence (O14786 22-923): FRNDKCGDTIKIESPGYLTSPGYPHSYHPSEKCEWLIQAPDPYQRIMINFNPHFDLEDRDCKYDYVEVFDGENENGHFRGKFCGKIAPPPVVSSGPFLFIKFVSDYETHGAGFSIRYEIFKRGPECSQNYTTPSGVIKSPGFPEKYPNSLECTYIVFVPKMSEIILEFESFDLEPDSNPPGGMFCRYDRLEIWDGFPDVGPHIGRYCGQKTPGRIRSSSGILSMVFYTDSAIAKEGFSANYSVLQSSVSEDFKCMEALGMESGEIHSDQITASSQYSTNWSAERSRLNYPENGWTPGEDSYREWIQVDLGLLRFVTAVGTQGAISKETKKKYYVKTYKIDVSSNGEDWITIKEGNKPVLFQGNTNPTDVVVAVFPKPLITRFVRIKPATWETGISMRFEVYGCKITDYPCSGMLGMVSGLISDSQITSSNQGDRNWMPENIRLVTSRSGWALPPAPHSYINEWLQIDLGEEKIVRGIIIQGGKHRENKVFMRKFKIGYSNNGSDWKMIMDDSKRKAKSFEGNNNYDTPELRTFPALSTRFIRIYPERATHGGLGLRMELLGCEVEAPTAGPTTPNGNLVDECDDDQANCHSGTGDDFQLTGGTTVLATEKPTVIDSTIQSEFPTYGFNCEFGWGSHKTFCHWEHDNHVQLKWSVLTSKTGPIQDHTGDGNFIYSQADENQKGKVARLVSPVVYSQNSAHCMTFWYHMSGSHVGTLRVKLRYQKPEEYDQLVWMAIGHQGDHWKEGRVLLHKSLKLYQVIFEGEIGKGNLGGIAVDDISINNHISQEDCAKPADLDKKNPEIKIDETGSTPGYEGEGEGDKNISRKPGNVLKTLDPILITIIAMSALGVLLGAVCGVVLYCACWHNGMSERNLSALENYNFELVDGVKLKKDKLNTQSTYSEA

[6] = 168 h, MDA-MB-231, concentration needed to reduce cell growth by 50% following 7 days cell treatment, read-out: IC50

| IC50 (MDA-MB-231 cells; [6]) | Kd (NRP1 [2]) | PARP1 (K d, nM) (PARP1 [3]) | PARP1 (IC50, nM) (PARP1 [4]) | IC50 (NRP1 [5]) | Kd (PARP1 [3]) | IC50 (PARP1 [4]) | IC50 (MDA-MB-231 cells; MDA-MB-231, 168 h) | NRP1 (K d, nM) (NRP1 [2]) | NRP1 (IC50, nM) (NRP1 [5]) | Compound | body weight (g) in mice, mean ([1]; day 0) | tumor volume (mm^3), mean ([1]; day 0) | body weight (g) in mice, mean ([1]; day 3) | tumor volume (mm^3), mean ([1]; day 3) | body weight (g) in mice, mean ([1]; day 6) | tumor volume (mm^3), mean ([1]; day 6) | body weight (g) in mice, mean ([1]; day 9) | tumor volume (mm^3), mean ([1]; day 9) | body weight (g) in mice, mean ([1]; day 12) | tumor volume (mm^3), mean ([1]; day 12) |
| --- | --- | --- | --- | --- | --- | --- | --- | --- | --- | --- | --- | --- | --- | --- | --- | --- | --- | --- | --- | --- |
| 62400 nM | 519 nM | no binding | No inhibition | 640 ± 34.7 nM | – | – | – | – | – | NC(N)=NCCC[C@H](NC(=O)c1sccc1NS(=O)(=O)c1cccc2nsnc12)C(=O)O [EG00229] | 18.38 g | 101 mm^3 | 18.51 g | 275 mm^3 | 18.84 g | 502 mm^3 | 19.19 g | 976 mm^3 | 19.52 g | 1352 mm^3 |
| 830 nM | 71.3 nM | – | – | 72.9 ± 3.41 nM | 61.1 nM | 63.2 ± 4.02 nM | – | – | – | NC(N)=NCCC[C@H](NC/C=C/CNC(=O)c1cc(Cc2n[nH]c(=O)c3ccccc23)ccc1F)C(=O)O [PPNR-3] | – | – | – | – | – | – | – | – | – | – |
| 720 nM | 55.3 nM | – | – | 57.1 ± 3.27 nM | 40 nM | 41.4 ± 2.86 nM | – | – | – | CN(CCNC(=O)c1cc(Cc2n[nH]c(=O)c3ccccc23)ccc1F)CN[C@@H](CCCN=C(N)N)C(=O)O [PPNR-5] | – | – | – | – | – | – | – | – | – | – |
| 890 nM | 91.5 nM | – | – | 94.1 ± 4.24 nM | 75.1 nM | 70.3 ± 3.13 nM | – | – | – | NC(N)=NCCC[C@H](NCNCCNC(=O)c1cc(Cc2n[nH]c(=O)c3ccccc23)ccc1F)C(=O)O [PPNR-1] | – | – | – | – | – | – | – | – | – | – |
| 560 nM | 31 nM | – | – | 31.2 ± 3.95 nM | 28.4 nM | 29.3 ± 2.57 nM | – | – | – | NC(N)=NCCC[C@H](NCN1CCCN(C(=O)c2cc(Cc3n[nH]c(=O)c4ccccc34)ccc2F)C1)C(=O)O [PPNR-2] | – | – | – | – | – | – | – | – | – | – |
| – | – | – | – | – | – | – | 960 nM | no binding | No inhibition | O=C(c1cc(Cc2n[nH]c(=O)c3ccccc23)ccc1F)N1CCN(C(=O)C2CC2)CC1 [Olaparib, olaparib] | 18.29 g | 103 mm^3 | 18.55 g | 245 mm^3 | 19.12 g | 329 mm^3 | 19.37 g | 513 mm^3 | 19.59 g | 733 mm^3 |
